These compounds were tested on tau protein (assay: Tau protein in vitro degradation assay (Western blot, Tau-13 antibody)). Details: SK-N-SH cells; 72 hours of incubation; tested at 300 nM, 100 nM, 33 nM and 11 nM; Western blot, Tau-13 antibody.
Assay type: cell-based, human
Summary of the method: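 Tau degradation read by Tau-13 Western blot (detects all human tau forms) of SDS-PAGE-resolved lysates from SK-N-SH cells. Cells were plated at least 18 h before 72 h exposure to PROTACs at either 1000/300/100 nM or 300/100/33/11 nM.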

| SMILES | Degradation activity* (highest amount of degradation observed at any dosage; tau protein remaining) | Degradation activity (tau protein remaining; highest amount of degradation observed at any dosage) |
| --- | --- | --- |
| Cn1c2ccncc2c2ccc(-c3ccc(C#CCOCCOCCOCCOCCOc4ccc5c(c4)C(=O)N(C4CCC(=O)NC4=O)C5=O)nc3)cc21 (stereo not shown) [Compound 71, 2-(2,6-dioxopiperidin-3-yl)-5-((15-(5-(5-methyl-5H-pyrido[4,3-b]indol-7-yl)pyridin-2-yl)-3,6,9,12-tetraoxapentadec-14-yn-1-yl)oxy)isoindoline-1,3-dione] | A (≤50% tau protein remaining after 72 hours of incubation with the test compound) | – |
| Cn1c2ccncc2c2ccc(-c3cnc(OCCOCCOCCOCCOCCOc4ccc5c(c4)C(=O)N(C4CCC(=O)NC4=O)C5=O)cc3C(F)(F)F)cc21 (stereo not shown) [Compound 69, 2-(2,6-dioxopiperidin-3-yl)-5-((14-((5-(5-methyl-5H-pyrido[4,3-b]indol-7-yl)-4-(trifluoromethyl)pyridin-2-yl)oxy)-3,6,9,12-tetraoxatetradecyl)oxy)isoindoline-1,3-dione] | A (≤50% tau protein remaining after 72 hours of incubation with the test compound) | – |
| Cn1c2ccncc2c2ccc(-c3ccc(OCCCCOCCCCOC4CC5(C4)CN(c4ccc6c(c4)C(=O)N(C4CCC(=O)NC4=O)C6=O)C5)nc3)cc21 (stereo not shown) [Compound 100, 2-(2,6-dioxopiperidin-3-yl)-5-(6-(4-(4-((5-(5-methyl-5H-pyrido[4,3-b]indol-7-yl)pyridin-2-yl)oxy)butoxy)butoxy)-2-azaspiro[3.3]heptan-2-yl)isoindoline-1,3-dione] | C (>80% tau protein remaining after 72 hours of incubation with the test compound) | – |
| Cn1c2ccncc2c2ccc(-c3ccc(O[C@H]4C[C@H](OCCOCCOC5CC6(C5)CN(c5ccc7c(c5)C(=O)N(C5CCC(=O)NC5=O)C7=O)C6)C4)nc3)cc21 (stereo partly shown) [Compound 213, 2-(2,6-dioxopiperidin-3-yl)-5-(6-(2-(2-((1r,3r)-3-((5-(5-methyl-5H-pyrido[4,3-b]indol-7-yl)pyridin-2-yl)oxy)cyclobutoxy)ethoxy)ethoxy)-2-azaspiro[3.3]heptan-2-yl)isoindoline-1,3-dione] | – | C (>80% tau protein remaining after 72 hours of incubation with the test compound) |
| Cn1c2ccncc2c2ccc(-c3ccc(O[C@H]4C[C@H](OCCCCCCOCC5CN(c6ccc7c(c6)C(=O)N(C6CCC(=O)NC6=O)C7=O)C5)C4)nc3)cc21 (stereo partly shown) [Compound 178, 2-(2,6-dioxopiperidin-3-yl)-5-(3-(((6-((1r,3r)-3-((5-(5-methyl-5H-pyrido[4,3-b]indol-7-yl)pyridin-2-yl)oxy)cyclobutoxy)hexyl)oxy)methyl)azetidin-1-yl)isoindoline-1,3-dione] | – | A (≤50% tau protein remaining after 72 hours of incubation with the test compound) |
| Cn1c2ccncc2c2ccc(-c3ccc(O[C@H]4C[C@H](Oc5cccc(OCCCCCCOc6ccc7c(c6)C(=O)N(C6CCC(=O)NC6=O)C7=O)c5)C4)nc3)cc21 (stereo partly shown) [Compound 84, 2-(2,6-dioxopiperidin-3-yl)-5-((6-(3-((1r,3r)-3-((5-(5-methyl-5H-pyrido[4,3-b]indol-7-yl)pyridin-2-yl)oxy)cyclobutoxy)phenoxy)hexyl)oxy)isoindoline-1,3-dione] | C (>80% tau protein remaining after 72 hours of incubation with the test compound) | – |
| Cn1c2ccncc2c2ccc(-c3ccc(O[C@H]4C[C@H](Oc5ccc(C#CCCCCOc6ccc7c(c6)C(=O)N(C6CCC(=O)NC6=O)C7=O)nc5)C4)nc3)cc21 (stereo partly shown) [Compound 97, 2-(2,6-dioxopiperidin-3-yl)-5-((6-(5-((1r,3r)-3-((5-(5-methyl-5H-pyrido[4,3-b]indol-7-yl)pyridin-2-yl)oxy)cyclobutoxy)pyridin-2-yl)hex-5-yn-1-yl)oxy)isoindoline-1,3-dione] | B (≤80% and >50% tau protein remaining after 72 hours of incubation with the test compound) | – |
| Cn1c2ccncc2c2ccc(-c3ccc(OC4CN(C(=O)C56CC(COCCCCCOc7ccc8c(c7)C(=O)N(C7CCC(=O)NC7=O)C8=O)(C5)C6)C4)nc3)cc21 (stereo not shown) [Compound 175, 2-(2,6-dioxopiperidin-3-yl)-5-((5-((3-(3-((5-(5-methyl-5H-pyrido[4,3-b]indol-7-yl)pyridin-2-yl)oxy)azetidine-1-carbonyl)bicyclo[1.1.1]pentan-1-yl)methoxy)pentyl)oxy)isoindoline-1,3-dione] | – | C (>80% tau protein remaining after 72 hours of incubation with the test compound) |
| O=C1CCC(N2C(=O)c3ccc(N4CCN(CCN5CCC(O[C@H]6C[C@H](Oc7ccc(-c8ccc9c(c8)[nH]c8ccncc89)cn7)C6)CC5)CC4)cc3C2=O)C(=O)N1 (stereo partly shown) [Compound 66, 5-(4-(2-(4-((1r,3r)-3-((5-(5H-pyrido[4,3-b]indol-7-yl)pyridin-2-yl)oxy)cyclobutoxy)piperidin-1-yl)ethyl)piperazin-1-yl)-2-(2,6-dioxopiperidin-3-yl)isoindoline-1,3-dione] | C (>80% tau protein remaining after 72 hours of incubation with the test compound) | – |
| Cn1c2ccncc2c2ccc(-c3ccc(O[C@H]4C[C@H](OC5CCN(c6cccc(CCCOc7ccc8c(c7)C(=O)N(C7CCC(=O)NC7=O)C8=O)c6)CC5)C4)nc3)cc21 (stereo partly shown) [Compound 205, 2-(2,6-dioxopiperidin-3-yl)-5-(3-(3-(4-((1r,3r)-3-((5-(5-methyl-5H-pyrido[4,3-b]indol-7-yl)pyridin-2-yl)oxy)cyclobutoxy)piperidin-1-yl)phenyl)propoxy)isoindoline-1,3-dione] | – | A (≤50% tau protein remaining after 72 hours of incubation with the test compound) |
| Cn1c2ccncc2c2ccc(-c3ccc(O[C@H]4C[C@H](Oc5cccc(OCCCCCCOc6ccc7c(c6)C(=O)N(C6CCC(=O)NC6=O)C7=O)n5)C4)nc3)cc21 (stereo partly shown) [Compound 108, 2-(2,6-dioxopiperidin-3-yl)-5-((6-((6-((1r,3r)-3-((5-(5-methyl-5H-pyrido[4,3-b]indol-7-yl)pyridin-2-yl)oxy)cyclobutoxy)pyridin-2-yl)oxy)hexyl)oxy)isoindoline-1,3-dione] | C (>80% tau protein remaining after 72 hours of incubation with the test compound) | – |
| Cn1c2ccncc2c2ccc(-c3cnc(OC4CCN(CCCOCCCOC5CN(c6ccc7c(c6)C(=O)N(C6CCC(=O)NC6=O)C7=O)C5)CC4)c(C(F)(F)F)c3)cc21 (stereo not shown) [Compound 130, 2-(2,6-dioxopiperidin-3-yl)-5-(3-(3-(3-(4-((5-(5-methyl-5H-pyrido[4,3-b]indol-7-yl)-3-(trifluoromethyl)pyridin-2-yl)oxy)piperidin-1-yl)propoxy)propoxy)azetidin-1-yl)isoindoline-1,3-dione] | B (≤80% and >50% tau protein remaining after 72 hours of incubation with the test compound) | – |

Same assay, conditions: SK-N-SH cells; 72 hours of incubation; tested at 1000 nM, 300 nM and 100 nM

| SMILES | Activity* (highest amount of degradation observed at any dosage, as tau protein remaining) |
| --- | --- |
| Cc1ncsc1-c1ccc(CNC(=O)[C@@H]2C[C@@H](O)CN2C(=O)[C@@H](NC(=O)COCCOCCOCC(O)COc2ccc3nc(-c4ccc(N(C)C)cc4)ccc3c2)C(C)(C)C)cc1 (stereo partly drawn) [Compound 43, (2S,4R)-1-((2S)-2-(tert-butyl)-15-((2-(4-(dimethylamino)phenyl)quinolin-6-yl)oxy)-14-hydroxy-4-oxo-6,9,12-trioxa-3-azapentadecanoyl)-4-hydroxy-N-(4-(4-methylthiazol-5-yl)benzyl)pyrrolidine-2-carboxamide] | C (>80% tau protein remaining after 72 hours of incubation with the test compound) |
| Cc1ncsc1-c1ccc(CNC(=O)[C@@H]2C[C@@H](O)CN2C(=O)[C@@H](NC(=O)COCCOCCOCCOCC(=O)N2CCN(c3ccn4c(n3)nc3ccccc34)CC2)C(C)(C)C)cc1 [Compound 24, (2S,4R)-1-((5)-17-(4-(benzo[4,5]imidazo[1,2-a]pyrimidin-2-yl)piperazin-1-yl)-2-(tert-butyl)-4,17-dioxo-6,9,12,15-tetraoxa-3-azaheptadecanoyl)-4-hydroxy-N-(4-(4-methylthiazol-5-yl)benzyl)pyrrolidine-2-carboxamide] | C (>80% tau protein remaining after 72 hours of incubation with the test compound) |
| Cc1ncsc1-c1ccc([C@H](C)NC(=O)[C@@H]2C[C@@H](O)CN2C(=O)[C@@H](NC(=O)COCCCCOc2ccc3nc(-c4ccc(N(C)C)cc4)ccc3c2)C(C)(C)C)cc1 [Compound 34, (2S,4R)-1-((S)-2-(2-(4-(2-(4-(dimethylamino)phenyl)quinolin-6-yloxy)butoxy)acetamido)-3,3-dimethylbutanoyl)-4-hydroxy-N—((S)-1-(4-(4-methylthiazol-5-yl)phenyl)ethyl)pyrrolidine-2-carboxamide] | C (>80% tau protein remaining after 72 hours of incubation with the test compound) |
| Cc1ncsc1-c1ccc([C@H](C)NC(=O)[C@@H]2C[C@@H](O)CN2C(=O)[C@@H](NC(=O)COCCOCCOCCOCCCOc2ccc3nc(-c4ccc(N(C)C)cc4)ccc3c2)C(C)(C)C)cc1 [Compound 39, (2S,4R)-1-((S)-2-tert-butyl-18-(2-(4-(dimethylamino)phenyl)quinolin-6-yloxy)-4-oxo-6,9,12,15-tetraoxa-3-azaoctadecane)-4-hydroxy-N—((S)-1-(4-(4-methylthiazol-5-yl)phenyl)ethyl)pyrrolidine-2-carboxamide] | C (>80% tau protein remaining after 72 hours of incubation with the test compound) |
